Test system: vesperlysine-like and pentosidine-like AGEs from albumin glycation
Test: Inhibition of AGE formation from albumin glycation (BSA + D-ribose, fluorescence)
Format: biochemical, bovine
Protocol: Following solutions were prepared for the assay: Reagent A: Phosphate buffer pH 7.0: 0.03 M KH2PO4 and 0.03 M K2HPO4 in ultrapure water (Millipore® Synergy® UV); Reagent B: 1.3 mg/mL aminoguanidine hydrochloride in phosphate buffer; Reagent C: 32 mg/mL Rosamox-Z in phosphate buffer; Reagent D: 30 mg/mL Zemea® Propanediol in phosphate buffer; Reagent E: 30 mg/mL BSA in phosphate buffer; Reagent F: 1.5 M D-ribose in phosphate buffer.
All the diluted samples (Sample B1-B5) were used for the AGE reaction.
Samples C1-C5 were diluted from the sample stock (reagent C) solution. Samples C6-C9 were diluted from Sample C5. All the diluted samples (Sample C1-C9) were used for the AGE reaction. Test samples D were diluted the same way as test samples C.
(Following Sero, L. et al. (2013) Tuning a 96-Well Microtiter Plate Fluorescence-Based Assay to Identify AGE Inhibitors in Crude Plant Extracts. Molecules. 18, 14320-14339.) A 96-well plate was prepared as follows (each sample was prepared in triplicate): Blank wells—50 μL BSA stock (reagent E) solution and 100 μL phosphate buffer (reagent A); Negative control wells—50 μL BSA stock (reagent E) and 50 μL diluent (Reagent A) to three empty wells; Positive control wells—50 μL BSA stock (reagent E) and 50 μL Aminoguanidine hydrochloride samples (Sample B1-B5); All treatments—50 μL BSA stock (reagent E) and 50 μL treatments (Sample C1-C9 and D1-D9); 50 μL D-ribose solutions (Reagent F) were added to every well except the blank wells.
The plates were read for fluorescence at λexc 370 nm λem 440 nm for versperlysines-like AGEs and λexc 335 nm λem 385 nm for pentosidine like AGEs. The plate was wrapped with aluminum foil to avoid light exposure and incubated at 37° C. and read again after 24 hours.
% inhibition was calculated as ((control 24 hours−control 0 hours)−(treatment 24 hours−treatment 0 hours))/(control 24 hours−control 0 hours).
FIG. 10 is a chart of the inhibition effect of Rosamox-Z on the formation of vesperlysine-like and pentosidine-like AGEs from albumin glycation. […]

Row | Structure (SMILES) | inhibition effect for pentosidine-like AGEs (0-15 mg/mL, λexc 335 nm λem 385 nm, 24 h at 37° C.) | promoting effect for vesperlysines-like AGEs (0-15 mg/mL, λexc 370 nm λem 440 nm, 24 h at 37° C.) | predicted 1050 for these reactions (worked out from the Rosamox-Z value and 4% carnosic acid content)
1 | [2H]C([2H])(O)C([2H])([2H])C([2H])([2H])O [Zemea® Propanediol, Propanediol] | around 10% | around 5% | –
2 | CC(C)c1cc2c(c(O)c1O)[C@@]1(C(=O)O)CCCC(C)(C)[C@@H]1CC2 [carnosic acid] | – | – | 0.4 to 0.6 mg/mL
